Assay results from BindingDB's records for patent US20240246937 (Merck Sharp & Dohme, 2024).

Biological target: T1, L-amino-acid oxidase (Homo sapiens, UniProt Q96RQ9)
T1 sequence (Q96RQ9 whole entry): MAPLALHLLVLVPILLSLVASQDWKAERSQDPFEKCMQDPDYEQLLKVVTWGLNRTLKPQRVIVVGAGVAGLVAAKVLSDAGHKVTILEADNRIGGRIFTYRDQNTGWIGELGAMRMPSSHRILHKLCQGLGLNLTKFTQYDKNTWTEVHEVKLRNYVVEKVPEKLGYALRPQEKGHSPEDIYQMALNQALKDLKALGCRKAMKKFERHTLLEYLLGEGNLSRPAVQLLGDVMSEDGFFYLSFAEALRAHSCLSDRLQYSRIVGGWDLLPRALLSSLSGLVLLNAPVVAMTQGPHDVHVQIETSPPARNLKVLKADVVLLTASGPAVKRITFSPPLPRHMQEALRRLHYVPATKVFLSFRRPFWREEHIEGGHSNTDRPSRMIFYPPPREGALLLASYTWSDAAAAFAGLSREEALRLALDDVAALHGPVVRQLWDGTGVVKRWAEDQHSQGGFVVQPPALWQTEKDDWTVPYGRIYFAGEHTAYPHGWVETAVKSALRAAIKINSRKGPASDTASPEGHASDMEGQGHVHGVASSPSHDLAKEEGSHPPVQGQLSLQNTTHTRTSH
Assay: IL4I1 Enzymatic Assay
Procedure: Using this assay, the potency (EC50) of each compound was determined from a ten-point (1:3 serial dilution) titration curve using the following outlined procedure. To each well of a black flat-bottom Greiner (Cat #781076) 384 well-plate, 25 nL of compound (0.1% DMSO in final assay volume of 25 μL) was dispensed, followed by the addition of 12.5 μL of 1× assay buffer (50 mM Hepes 7.0 and 0.005% Tween20 (Sigma, Cat #P8341; low peroxide grade)) containing 2 nM of recombinant IL4I1 (R&D Systems, Cat #5684-AO-020). Plates were placed in an ambient temperature humidified chamber for a four-hour pre-incubation with compound. Subsequently, each reaction was initiated by the addition of 12.5 μL 1× assay buffer containing 2 mM of each aromatic amino acids (Phe/Tyr/Trp), 0.1 mM Amplex Red and 2 U/mL of HRP. The final reaction in each well of 25 μL consisted of 1 nM of IL4I1, 1 mM of each residues (Phe, Tyr and Trp), 0.05 mM Amplex Red and 1 U/mL of HRP. It should be noted that the concentrations of Amplex Red and HRP used here were in excess such that the conversion of H2O2 to resorufin product occurred

- EC50: 6 nM
Compound: CC1CC(N2CCN(Cc3nnc(-c4ccccc4)s3)C(=O)C2=O)C1 (stereo unspecified) [US20240246937, Example 289]
